Results reported in article PMC4549712, “Inhibition of human GLUT1 and GLUT5 by plant carbohydrate products; insights into transport specificity” (Scientific Reports, 2015).
“And” between values parts separate entries of the source, which are not always exact repeats. Identical values can stand only once. “Also recorded” adds a separate entry of the source.

Assays:
[1] = molecular target: T1, GLUT5A396W (Homo sapiens, UniProt P22732, A396W); assay: entrance counter-flow transport assay, fructose transport by GLUT5A396W proteoliposomes; format: biochemical
T1 construct: Full length DNA was subcloned into pFastBac1 (Life Technologies) vector with a N-terminal hexahistidine tag; hexahistidine (thrombin-cleavable) (N, cleaved yes); made in house; host or cells: Sf21 insect cells (baculovirus, pFastBac1)
T1 sequence (P22732 1-501 A396W): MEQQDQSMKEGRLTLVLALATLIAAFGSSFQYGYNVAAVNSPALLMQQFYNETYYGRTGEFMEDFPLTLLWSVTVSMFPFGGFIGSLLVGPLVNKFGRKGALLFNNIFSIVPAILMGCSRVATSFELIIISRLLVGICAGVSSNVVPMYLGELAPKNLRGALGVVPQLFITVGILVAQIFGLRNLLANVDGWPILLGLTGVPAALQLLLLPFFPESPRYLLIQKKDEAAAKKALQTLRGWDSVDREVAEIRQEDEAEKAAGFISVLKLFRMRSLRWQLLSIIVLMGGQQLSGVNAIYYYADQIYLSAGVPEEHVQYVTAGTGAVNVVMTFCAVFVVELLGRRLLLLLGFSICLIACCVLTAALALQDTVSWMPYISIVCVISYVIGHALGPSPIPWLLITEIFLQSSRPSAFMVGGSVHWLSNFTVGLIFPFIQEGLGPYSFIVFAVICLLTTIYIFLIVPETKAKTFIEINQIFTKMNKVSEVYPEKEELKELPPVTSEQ
Description: (§1) We expressed and purified GLUT1W388A and GLUT5A396W. Purified mutant proteins were reconstituted into proteoliposomes and activity was determined by entrance counter-flow transport assay.
(§2) cDNAs of GLUT1 and GLUT5 were purchased from Open Biosystems (GE Healthcare). Full length DNA was subcloned into pFastBac1 (Life Technologies) vector with a N-terminal hexahistidine tag. Bacmids were generated in DH10Bac E. coli cells (Life Technologies). Baculoviruses were produced using Cellfectin II Reagent and amplified in Sf21 insect cells (Life Technologies). Cells were maintained at 26 °C, and P1 (10^6 pfu/mL) was collected from infected cells after 72 hours. Sf21 cells were propagated in HyClone SFX-Insect media (GE Healthcare), supplemented with 5% fetal bovine serum (Biowest), antibiotics (100 units/mL Penicillin G and 100 μg/mL streptomycin sulfate) and amphotericin B (2.5 μg/mL). For recombinant protein expression, Sf21 cells in suspension culture at 2 × 10^6 cells/ml were infected with P3 viral stock (10^8 pfu/mL), at an MOI of 1.0 pfu/cell. Four days after viral infection, cells from 2 L culture were collected by centrifugation at 2,000 × g and 25 °C. […]

[2] = molecular target: T2, GLUT1W388A (Homo sapiens, UniProt P11166, W388A); assay: entrance counter-flow transport assay, glucose transport by GLUT1W388A proteoliposomes; format: biochemical; details: any tested concentration, up to 20 mM
T2 construct: Full length DNA was subcloned into pFastBac1 (Life Technologies) vector with a N-terminal hexahistidine tag; hexahistidine (thrombin-cleavable) (N, cleaved yes); made in house; host or cells: Sf21 insect cells (baculovirus, pFastBac1)
T2 sequence (P11166 1-492 W388A): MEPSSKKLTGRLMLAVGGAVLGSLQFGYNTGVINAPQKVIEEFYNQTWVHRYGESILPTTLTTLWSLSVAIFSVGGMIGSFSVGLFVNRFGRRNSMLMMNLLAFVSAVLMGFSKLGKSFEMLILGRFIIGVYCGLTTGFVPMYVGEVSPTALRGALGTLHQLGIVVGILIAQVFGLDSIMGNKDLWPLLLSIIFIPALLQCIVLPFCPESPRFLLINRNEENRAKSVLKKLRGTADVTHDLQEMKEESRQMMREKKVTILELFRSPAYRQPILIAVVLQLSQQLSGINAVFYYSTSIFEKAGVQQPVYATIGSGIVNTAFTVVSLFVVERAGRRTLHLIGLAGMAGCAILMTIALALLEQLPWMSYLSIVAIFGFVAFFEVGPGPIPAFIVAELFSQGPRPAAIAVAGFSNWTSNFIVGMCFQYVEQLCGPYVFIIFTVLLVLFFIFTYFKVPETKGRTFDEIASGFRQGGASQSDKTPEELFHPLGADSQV
Description: as §1, §2

Compound: C=C1C[C@@]23CC[C@H]4[C@@](C)(CCC[C@@]4(C)C(=O)O[C@@H]4O[C@H](CO)[C@@H](O)[C@H](O)[C@H]4O)[C@@H]2CC[C@]1(O[C@@H]1O[C@H](CO)[C@@H](O)[C@H](O)[C@H]1O)C3 [Rub, Rubusoside]
- IC50 [1]: 10.3 mM and 10 mM
- inhibition of glucose transport by GLUT1W388A [2]: not inhibited; also recorded: did not inhibit
